# Results published in patent US10760110B2, “Antibiotic testing and screening system” (priority 2017, dated 2020).
# Like-named read-outs stand apart in the source and are kept apart here.
# Experiments:
# [1] = system: K. pneumoniae NVT1001 gyrA/parC and gyrA/parC/ramR mutants and revertants; assay: Etest MIC of quinolones, gyrA/parC and gyrA/parC/ramR mutants and their revertants (Table 11); type: cell-based; conditions: Klebsiella pneumoniae
# Text: The allelic-exchange method was used to restore the wild-type gene in the K. pneumoniae NVT1001 mutants with constructed chromosome-mediated resistance mechanisms, as described by Tsai et al.^19 Briefly, a DNA fragment of the entire wild-type gene sequence along with flanking regions was amplified from K. pneumoniae NVT1001 using PCR with specific primers. The resulting PCR fragment was digested and then cloned into pUT-KB. For homologous recombination, this plasmid was transformed into E. coli S17-1 λpir^23 via electroporation and mobilized into the K. pneumoniae NVT1001 mutant via conjugation. […] After incubation in 20 mL BHI broth for 6 hours at 37° C. in the absence of kanamycin, the fully grown cultures were spread onto LB agar plates supplemented with 10% sucrose. After the double crossover occurred, the sucrose-resistant and kanamycin-susceptible colonies were selected, and the restoration of the wild-type gene was confirmed via DNA sequencing.
# (§1) The MICs of antibiotics were determined using the Etest (Biodisk AB, Sweden) according to the manufacturer's instructions. The MICs from the Etest, which fall between standard two-fold dilutions, were rounded up to the next highest two-fold value. The MICs of ceftazidime and cefotaxime against K. pneumoniae NVT1001 harbouring the pACYC177 plasmid with blaOXA-48 were further determined using a broth microdilution test according to the recommendations of the CLSI,^25 and the results were interpreted according to the breakpoints established by the CLSI in 2017.^25 Meanwhile, due to the lack of CLSI breakpoints in 2016 and 2017, the results for cephalothin were interpreted according to the breakpoints established by the CLSI in 2015,^26 and the results for moxifloxacin were interpreted according to the breakpoints established by the EUCAST in 2017.^27
# [2] = system: K. pneumoniae NVT1001 strains with QnrB, QnrS or AAC(6′)-Ib-cr plasmids; assay: Etest MIC of quinolones, GyrA/ParC mutations, ΔramR and/or QnrB, QnrS or AAC(6′)-Ib-cr (Table 12); type: cell-based; conditions: Klebsiella pneumoniae
# Experimental: DNA fragments of the resistance genes along with their flanking regions were amplified from clinical plasmids via PCR with specific primer pairs. The resulting PCR fragments were digested and then cloned into the plasmid pACYC177 or pACYC184. The resulting plasmids were then transformed into K. pneumoniae strain NVT1001 via electroporation. The recombinant bacteria were plated onto LB agar plates containing kanamycin (50 mg/L) or chloramphenicol (50 mg/L), and the presence of the cloned gene was confirmed via PCR and DNA sequencing.
# as §1
structure (smiles),measurement,setting,value
"CCn1cc(C(=O)O)c(=O)c2ccc(C)nc21 [Nalidixic acid, nalidixic acid]",MIC,[1]; S83F/D87N/S80I mutant,> 256 µg/mL
same,MIC,"[1]; S83F/D87N/S80I::F83S/N87D/I80S revertant, read-out: MIC",4 µg/mL
same,MIC,"[1]; S83F/D87N/S80I::I80S revertant, read-out: MIC",> 256 µg/mL
same,MIC,"[1]; S83F/D87N/S80I::N87D revertant, read-out: MIC",> 256 µg/mL
same,MIC,"[1]; S83F/D87N/S80I::N87D/I80S revertant, read-out: MIC",> 256 µg/mL
same,MIC,[1]; S83I/D87N/S80I mutant,> 256 µg/mL
same,MIC,"[1]; S83I/D87N/S80I::I80S revertant, read-out: MIC",> 256 µg/mL
same,MIC,"[1]; S83I/D87N/S80I::I83S/N87D/I80S revertant, read-out: MIC",4 µg/mL
same,MIC,"[1]; S83I/D87N/S80I::N87D revertant, read-out: MIC",> 256 µg/mL
same,MIC,"[1]; S83I/D87N/S80I::N87D/I80S revertant, read-out: MIC",> 256 µg/mL
same,MIC,[1]; S83L/D87N/S80I mutant,> 256 µg/mL
same,MIC,"[1]; S83L/D87N/S80I::I80S revertant, read-out: MIC",> 256 µg/mL
same,MIC,"[1]; S83L/D87N/S80I::L83S/N87D/I80S revertant, read-out: MIC",4 µg/mL
same,MIC,"[1]; S83L/D87N/S80I::N87D revertant, read-out: MIC",> 256 µg/mL
same,MIC,"[1]; S83L/D87N/S80I::N87D/I80S revertant, read-out: MIC",> 256 µg/mL
same,MIC,[1]; S83Y/D87N/S80I mutant,> 256 µg/mL
same,MIC,"[1]; S83Y/D87N/S80I::I80S revertant, read-out: MIC",> 256 µg/mL
same,MIC,"[1]; S83Y/D87N/S80I::N87D revertant, read-out: MIC",> 256 µg/mL
same,MIC,"[1]; S83Y/D87N/S80I::N87D/I80S revertant, read-out: MIC",> 256 µg/mL
same,MIC,"[1]; S83Y/D87N/S80I::Y83S/N87D/I80S revertant, read-out: MIC",8 µg/mL
same,MIC,[1]; ΔramR/S83I/D87N/S80I mutant,> 256 µg/mL
same,MIC,[1]; ΔramR/S83I/D87N/S80I:: ramR/I83S revertant,> 256 µg/mL
same,MIC,[1]; ΔramR/S83I/D87N/S80I:: ramR/I83S/I80S revertant,> 256 µg/mL
same,MIC,[1]; ΔramR/S83I/D87N/S80I:: ramR/I83S/N87D revertant,8 µg/mL
same,MIC,[1]; ΔramR/S83I/D87N/S80I::I83S/N87D/I80S revertant,32 µg/mL
same,MIC,[1]; ΔramR/S83I/D87N/S80I::N87D revertant,> 256 µg/mL
same,MIC,[1]; ΔramR/S83I/D87N/S80I::N87D/I80S revertant,> 256 µg/mL
same,MIC,[1]; ΔramR/S83I/D87N/S80I::ramR/I83S/N87D/I80S,8 µg/mL
same,MIC,"[2]; AAC(6′)-Ib-cr on pACYC177, S83I mutant",> 256 µg/mL
same,MIC,"[2]; AAC(6′)-Ib-cr on pACYC177, S83I/D87N/S80I mutant",> 256 µg/mL
same,MIC,"[2]; AAC(6′)-Ib-cr on pACYC177, S83I/S80I mutant",> 256 µg/mL
same,MIC,"[2]; AAC(6′)-Ib-cr on pACYC177, WT (NVT1001), read-out: MIC",4 µg/mL
same,MIC,"[2]; AAC(6′)-Ib-cr on pACYC177, ΔramR mutant",64 µg/mL
same,MIC,"[2]; AAC(6′)-Ib-cr on pACYC177, ΔramR/S83I mutant",> 256 µg/mL
same,MIC,"[2]; AAC(6′)-Ib-cr on pACYC177, ΔramR/S83I/D87N/S80I mutant",> 256 µg/mL
same,MIC,"[2]; AAC(6′)-Ib-cr on pACYC177, ΔramR/S83I/S80I mutant",> 256 µg/mL
same,MIC,"[2]; QnrB on pACYC177, S83I mutant",> 256 µg/mL
same,MIC,"[2]; QnrB on pACYC177, S83I/D87N/S80I mutant",> 256 µg/mL
same,MIC,"[2]; QnrB on pACYC177, S83I/S80I mutant",> 256 µg/mL
same,MIC,"[2]; QnrB on pACYC177, WT (NVT1001), read-out: MIC",32 µg/mL
same,MIC,"[2]; QnrB on pACYC177, ΔramR mutant",256 µg/mL
same,MIC,"[2]; QnrB on pACYC177, ΔramR/S83I mutant",> 256 µg/mL
same,MIC,"[2]; QnrB on pACYC177, ΔramR/S83I/D87N/S80I mutant",> 256 µg/mL
same,MIC,"[2]; QnrB on pACYC177, ΔramR/S83I/S80I mutant",> 256 µg/mL
same,MIC,"[2]; QnrS on pACYC177, S83I mutant",> 256 µg/mL
same,MIC,"[2]; QnrS on pACYC177, S83I/D87N/S80I mutant",> 256 µg/mL
same,MIC,"[2]; QnrS on pACYC177, S83I/S80I mutant",> 256 µg/mL
same,MIC,"[2]; QnrS on pACYC177, WT (NVT1001), read-out: MIC",16 µg/mL
same,MIC,"[2]; QnrS on pACYC177, ΔramR mutant",64 µg/mL
same,MIC,"[2]; QnrS on pACYC177, ΔramR/S83I mutant",> 256 µg/mL
same,MIC,"[2]; QnrS on pACYC177, ΔramR/S83I/D87N/S80I mutant",> 256 µg/mL
same,MIC,"[2]; QnrS on pACYC177, ΔramR/S83I/S80I mutant",> 256 µg/mL
same,MIC,"[2]; no supplemental plasmid, S83I mutant",> 256 µg/mL
same,MIC,"[2]; no supplemental plasmid, S83I/D87N/S80I mutant",> 256 µg/mL
same,MIC,"[2]; no supplemental plasmid, S83I/S80I mutant",> 256 µg/mL
same,MIC,"[2]; no supplemental plasmid, WT (NVT1001), read-out: MIC",4 µg/mL
same,MIC,"[2]; no supplemental plasmid, ΔramR mutant",32 µg/mL
same,MIC,"[2]; no supplemental plasmid, ΔramR/S83I mutant",> 256 µg/mL
same,MIC,"[2]; no supplemental plasmid, ΔramR/S83I/D87N/S80I mutant",> 256 µg/mL
same,MIC,"[2]; no supplemental plasmid, ΔramR/S83I/S80I mutant",> 256 µg/mL
